Results from ChEMBL document CHEMBL1155139 (Antimicrob Agents Chemother, 2007).
Values after ≈ are worked out from the molar mass of the structure shown.

Legend:
Plasmodium falciparum [1] = experiment: Antimalarial activity against Plasmodium falciparum K1; assay type: functional, organism-based
Plasmodium berghei [2] = experiment: Antimalarial activity as reduced parasitaemia at day 3 against Plasmodium berghei infected MORO mice (Mus musculus) at 100 mg/kg subcutaneous dose; assay type: functional; set-up: scale not given: the % may be the effect or the level left
Plasmodium falciparum [3] = experiment: Antimalarial activity against Plasmodium falciparum NF54; assay type: functional, organism-based
Plasmodium berghei [4] = experiment: Antimalarial activity as reduced parasitaemia at day 3 against Plasmodium berghei infected MORO mice (Mus musculus) at 100 mg/kg peroral dose; assay type: functional; set-up: scale not given: the % may be the effect or the level left; conditions: route oral
Plasmodium falciparum [5] = experiment: Antimalarial activity against Plasmodium falciparum FcB1; assay type: functional, organism-based; conditions: FcB1/Columbia

Question: Which results are given for `CCCC1(CCC)OOC(CCC)(CCC)OO1`?
Answer: IC50 (Plasmodium falciparum [1]): 0.04 µg/mL (≈ 0.154 µM); Activity (Plasmodium berghei [2]): 0%; IC50 (Plasmodium falciparum [3]): 0.023 µg/mL (≈ 0.0883 µM); Activity (Plasmodium berghei [4]): 21%; IC50 (Plasmodium falciparum [5]): 0.048 µg/mL (≈ 0.184 µM)

Question: How did the IC50 (Plasmodium falciparum [1]) turn out when `C1CCC2(CC1)COC1(CCCCC1)OC2` was run?
Answer: Its IC50 is over 10 µg/mL.

Question: What about the IC50 (Plasmodium falciparum [3]) of the same compound?
Answer: Its IC50 is over 10 µg/mL.

Question: With `C[C@@H]1CCCCC12OOC1(CCCC[C@@H]1C)OO2` (stereo partly drawn) [WR-148999] as the compound, how does the Activity (Plasmodium berghei [2]) read?
Answer: The Activity was 99.99%.

Question: And the Activity (Plasmodium berghei [4])?
Answer: The Activity was 99.7%.

Question: How did the IC50 (Plasmodium falciparum [1]) turn out when `C1CCCC2(CC1)OOC1(CCCCCC1)OO2` was run?
Answer: The IC50 was 0.014 µg/mL (≈ 0.0546 µM).

Question: What about the Activity (Plasmodium berghei [2]) of the same compound?
Answer: Its Activity is 56%.

Question: What about the IC50 (Plasmodium falciparum [3]) of the same compound?
Answer: Its IC50 is 0.011 µg/mL (≈ 0.0429 µM).

Question: What about the Activity (Plasmodium berghei [4]) of the same compound?
Answer: The Activity was 60%.

Question: And the IC50 (Plasmodium falciparum [5])?
Answer: Its IC50 is 0.021 µg/mL (≈ 0.0819 µM).

Question: Which IC50 (Plasmodium falciparum [1]) does the source give for `CCCCC1(CCCC)OOC(CCCC)(CCCC)OOC(CCCC)(CCCC)OO1` here?
Answer: The IC50 was over 10 µg/mL.

Question: And the IC50 (Plasmodium falciparum [3])?
Answer: Its IC50 is over 10 µg/mL.

Question: With `CCCCC1(CCCC)OOC(CCCC)(CCCC)OO1` as the compound, how does the IC50 (Plasmodium falciparum [1]) read?
Answer: The IC50 was 0.071 µg/mL (≈ 0.224 µM).

Question: What about the Activity (Plasmodium berghei [2]) of the same compound?
Answer: The Activity was 5%.

Question: And the IC50 (Plasmodium falciparum [3])?
Answer: Its IC50 is 0.088 µg/mL (≈ 0.278 µM).

Question: And the Activity (Plasmodium berghei [4])?
Answer: The Activity was 47%.

Question: Which results are given for `C[C@@H]1CC[C@H]2[C@@H](C)C(=O)O[C@@H]3O[C@@]4(C)CC[C@@H]1[C@]32OO4` [ARTEMISININ]?
Answer: Activity (Plasmodium berghei [2]): 99.99%; IC50 (Plasmodium falciparum [3]): 0.0034 µg/mL (≈ 0.012 µM); Activity (Plasmodium berghei [4]): 98%
